Measured values taken from ChEMBL document CHEMBL1208705, “4-(3-Trifluoromethylphenyl)-pyrimidine-2-carbonitrile as cathepsin S inhibitors: N3, not N1 is critically important” (Bioorg Med Chem Lett, 2010).

Test: Chemical stability of the compound assessed as half life at 1.25 mM in presence of glutathione by NMR analysis
Format: physicochemical
Conditions: gsh

Row | half-life at 1250 µM [h] | SMILES
1 | 150 | CN1CCN(CCCOc2ccc(-c3cccc(C#N)n3)cc2C(F)(F)F)CC1
2 | 120 | CN1CCN(CCCOc2ccc(-c3ccnc(C#N)c3)cc2C(F)(F)F)CC1
